Reference: ChEMBL document CHEMBL1201862, “PubChem BioAssay data set” (2004)
Active and inactive are the calls of the source.

How the values were obtained:
[1] = Fluorescence Cell-Based Dose Response to Identify Inhibitors of Thrombin Receptor-Activating Peptide SFLLRN-Mediated P-Selectin Induction on Platelets. [Related pubchem assays: 1663 (Primary HTS), 1889 (retest at dose ), 1891 (counterscreen), 1678 (Project Summary)]; assay type: functional
[2] = target: T1, Luciferin 4-monooxygenase (Photinus pyralis, UniProt P08659); assay: firefly luciferase enzyme inhibitors, dose response, biochemical, luminescence (AID 1891)
T1 sequence (P08659 whole entry): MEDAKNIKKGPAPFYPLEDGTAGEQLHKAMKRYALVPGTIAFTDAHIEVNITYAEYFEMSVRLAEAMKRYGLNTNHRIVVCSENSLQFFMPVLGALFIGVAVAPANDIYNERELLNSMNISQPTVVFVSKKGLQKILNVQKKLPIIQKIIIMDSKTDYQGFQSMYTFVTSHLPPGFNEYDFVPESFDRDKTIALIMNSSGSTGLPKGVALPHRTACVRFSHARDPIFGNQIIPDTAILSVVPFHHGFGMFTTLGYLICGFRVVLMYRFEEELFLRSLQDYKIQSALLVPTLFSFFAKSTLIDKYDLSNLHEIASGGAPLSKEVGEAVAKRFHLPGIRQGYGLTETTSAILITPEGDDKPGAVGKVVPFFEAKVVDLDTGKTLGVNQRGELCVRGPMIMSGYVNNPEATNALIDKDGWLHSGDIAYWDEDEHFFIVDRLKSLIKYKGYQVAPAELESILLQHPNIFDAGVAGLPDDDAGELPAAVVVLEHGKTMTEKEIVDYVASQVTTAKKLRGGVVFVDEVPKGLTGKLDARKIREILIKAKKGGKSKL

[3] = Luminescence Cell-Based Dose Confirmation HTS to Identify Inhibitors of Platelet Dense Granule Release. [Related pubchem assays: 1663 (Primary HTS), 1678 (Summary of Project)]; assay type: functional
[4] = target: Neuropeptide Y receptor type 2 (Homo sapiens, UniProt P49146); assay type: functional, cell-based;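 also: HEK293 cells expressing the receptor and a CNG channel; stimulus was NPY near EC95 followed by isoproterenol to raise cAMP; antagonist potency measured as restoring cAMP signal that NPY suppresses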
Sequence of Neuropeptide Y receptor type 2 (P49146 whole entry): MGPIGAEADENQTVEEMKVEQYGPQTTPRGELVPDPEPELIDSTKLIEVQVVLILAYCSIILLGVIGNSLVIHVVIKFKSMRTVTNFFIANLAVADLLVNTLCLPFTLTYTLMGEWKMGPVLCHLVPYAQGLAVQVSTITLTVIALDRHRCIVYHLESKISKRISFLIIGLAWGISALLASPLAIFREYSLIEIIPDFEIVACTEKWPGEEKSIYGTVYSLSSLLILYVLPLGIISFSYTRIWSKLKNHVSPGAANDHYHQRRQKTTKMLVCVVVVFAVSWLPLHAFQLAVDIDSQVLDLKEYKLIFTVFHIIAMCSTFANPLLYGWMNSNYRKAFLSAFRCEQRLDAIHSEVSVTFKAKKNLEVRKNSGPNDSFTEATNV

[5] = target: Neuropeptide Y receptor type 1 (Homo sapiens, UniProt P25929); assay type: functional;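 also: HEK293 cells with a CNG channel challenged with NPY then isoproterenol; potency as antagonist that reverses NPY suppression of cAMP signal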
Sequence of Neuropeptide Y receptor type 1 (P25929 whole entry): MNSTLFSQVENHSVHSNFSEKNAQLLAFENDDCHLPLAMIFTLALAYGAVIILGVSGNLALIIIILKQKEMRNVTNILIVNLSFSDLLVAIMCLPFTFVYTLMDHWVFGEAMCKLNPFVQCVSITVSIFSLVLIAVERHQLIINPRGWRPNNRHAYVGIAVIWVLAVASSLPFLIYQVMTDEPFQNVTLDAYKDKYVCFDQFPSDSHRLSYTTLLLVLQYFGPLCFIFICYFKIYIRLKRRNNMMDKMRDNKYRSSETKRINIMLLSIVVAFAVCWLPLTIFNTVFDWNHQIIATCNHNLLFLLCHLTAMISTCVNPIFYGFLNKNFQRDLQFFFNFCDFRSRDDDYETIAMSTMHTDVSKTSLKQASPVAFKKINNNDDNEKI

[6] = target: Epstein-Barr nuclear antigen 1 (Epstein-Barr virus (strain B95-8) (HHV-4) (Human herpesvirus 4), UniProt P03211); assay: EBNA-1 inhibitors, dose response, biochemical, fluorescence polarization, 1536-well (AID 2381); design: species or system human gammaherpesvirus 4;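 also: fluorescence polarization of a Cy5 DNA probe bound by EBNA-1 protein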
Sequence of Epstein-Barr nuclear antigen 1 (P03211 whole entry): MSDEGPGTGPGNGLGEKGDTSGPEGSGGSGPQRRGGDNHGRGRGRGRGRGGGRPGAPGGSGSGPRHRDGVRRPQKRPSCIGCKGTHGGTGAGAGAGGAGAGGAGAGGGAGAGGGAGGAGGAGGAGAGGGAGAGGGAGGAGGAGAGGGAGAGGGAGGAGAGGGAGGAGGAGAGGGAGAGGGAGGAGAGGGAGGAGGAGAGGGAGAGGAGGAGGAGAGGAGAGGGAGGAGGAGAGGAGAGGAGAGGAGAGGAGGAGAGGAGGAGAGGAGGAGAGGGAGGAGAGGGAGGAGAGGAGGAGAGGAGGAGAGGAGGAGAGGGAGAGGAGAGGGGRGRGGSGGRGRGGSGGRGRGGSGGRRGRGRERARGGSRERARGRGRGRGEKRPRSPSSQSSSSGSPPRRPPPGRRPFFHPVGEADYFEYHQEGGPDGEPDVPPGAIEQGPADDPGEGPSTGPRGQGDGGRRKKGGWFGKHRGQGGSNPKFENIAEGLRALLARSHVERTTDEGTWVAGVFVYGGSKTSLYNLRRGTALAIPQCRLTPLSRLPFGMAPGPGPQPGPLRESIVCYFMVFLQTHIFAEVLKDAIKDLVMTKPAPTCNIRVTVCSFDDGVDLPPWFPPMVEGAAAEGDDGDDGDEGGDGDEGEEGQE

[7] = target: Lytic switch protein BZLF1 (Epstein-Barr virus (strain B95-8) (HHV-4) (Human herpesvirus 4), UniProt P03206); assay: EBV ZTA inhibitors, dose response, counter-screen for EBNA-1 inhibitor project, biochemical, fluorescence polarization, Epstein-Barr virus, 1536-well (AID 2377); design: species or system human gammaherpesvirus 4;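 also: fluorescence polarization of Cy5-labelled ZRE DNA probe bound by purified Zta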
Sequence of Lytic switch protein BZLF1 (P03206 whole entry): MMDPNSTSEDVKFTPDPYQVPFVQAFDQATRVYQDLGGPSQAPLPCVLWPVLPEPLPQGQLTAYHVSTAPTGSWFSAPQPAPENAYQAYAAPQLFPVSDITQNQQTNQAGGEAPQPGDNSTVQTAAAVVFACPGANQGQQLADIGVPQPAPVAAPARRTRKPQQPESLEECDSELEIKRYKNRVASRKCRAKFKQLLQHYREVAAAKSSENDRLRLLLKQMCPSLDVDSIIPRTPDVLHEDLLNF

Vero [8] = assay: West Nile virus antiviral activity, cell-based, CPE readout (AID 1621); assay type: functional; settings: Chlorocebus sabaeus
Vero [9] = assay: cells; assay type: functional; settings: Chlorocebus sabaeus
[10] = target: T1, Luciferin 4-monooxygenase; assay: Counter Screen for Luciferase-based Assay Positives. [Related pubchem assays: 620, 618, 411 ]
HT-1080 = assay: cytotoxicity in HT1080 fibrosarcoma cells, cell-based, fluorescence readout (AID 620); assay type: functional; settings: Homo sapiens
NADPH oxidase 1 = NADPH oxidase 1 (Homo sapiens, UniProt Q9Y5S8); assay: Late-stage luminescence-based cell-based dose response assay to identify inhibitors of NADPH oxidase 1 (NOX1): Purchased analogs 2.; assay type: functional
Sequence of NADPH oxidase 1 (Q9Y5S8 whole entry): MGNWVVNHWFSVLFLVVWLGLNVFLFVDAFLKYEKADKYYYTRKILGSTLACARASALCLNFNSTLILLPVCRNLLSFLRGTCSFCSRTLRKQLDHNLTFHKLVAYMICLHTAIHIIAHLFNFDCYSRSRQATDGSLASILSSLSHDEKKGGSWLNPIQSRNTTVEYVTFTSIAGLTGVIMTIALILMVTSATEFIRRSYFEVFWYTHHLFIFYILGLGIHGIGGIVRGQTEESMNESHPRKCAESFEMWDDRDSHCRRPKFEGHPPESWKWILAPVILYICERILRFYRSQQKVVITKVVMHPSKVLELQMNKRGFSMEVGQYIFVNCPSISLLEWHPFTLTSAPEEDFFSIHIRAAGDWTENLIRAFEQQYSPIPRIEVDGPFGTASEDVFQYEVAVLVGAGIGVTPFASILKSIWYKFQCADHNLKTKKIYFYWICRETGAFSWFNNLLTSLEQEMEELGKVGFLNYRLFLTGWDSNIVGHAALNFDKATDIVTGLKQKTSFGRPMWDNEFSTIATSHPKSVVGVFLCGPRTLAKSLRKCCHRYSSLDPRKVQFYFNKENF

[11] = cytotoxicity in HPDE-C7 cells, cell-based, fluorescence, HTS (AID 430); assay type: functional; settings: Homo sapiens
[12] = HEp-2 cell cytotoxicity, dose response, cytotoxicity control for RSV inhibitor project, HTS (AID 2410); assay type: functional; settings: human respiratory syncytial virus
[13] = cytotoxicity in KRAS-transformed pancreatic duct cells, primary screen, cell-based, fluorescence, HTS (AID 431); assay type: functional; settings: Homo sapiens;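 also: cell line used: HPDE-C7K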
[14] = target: Voltage-gated inwardly rectifying potassium channel KCNH2 (Homo sapiens, UniProt Q12809); assay: hERG protection from proarrhythmic block, potency, dose response, cell-based, thallium flux (AID 2121); assay type: ADME
Sequence of Voltage-gated inwardly rectifying potassium channel KCNH2 (Q12809 whole entry): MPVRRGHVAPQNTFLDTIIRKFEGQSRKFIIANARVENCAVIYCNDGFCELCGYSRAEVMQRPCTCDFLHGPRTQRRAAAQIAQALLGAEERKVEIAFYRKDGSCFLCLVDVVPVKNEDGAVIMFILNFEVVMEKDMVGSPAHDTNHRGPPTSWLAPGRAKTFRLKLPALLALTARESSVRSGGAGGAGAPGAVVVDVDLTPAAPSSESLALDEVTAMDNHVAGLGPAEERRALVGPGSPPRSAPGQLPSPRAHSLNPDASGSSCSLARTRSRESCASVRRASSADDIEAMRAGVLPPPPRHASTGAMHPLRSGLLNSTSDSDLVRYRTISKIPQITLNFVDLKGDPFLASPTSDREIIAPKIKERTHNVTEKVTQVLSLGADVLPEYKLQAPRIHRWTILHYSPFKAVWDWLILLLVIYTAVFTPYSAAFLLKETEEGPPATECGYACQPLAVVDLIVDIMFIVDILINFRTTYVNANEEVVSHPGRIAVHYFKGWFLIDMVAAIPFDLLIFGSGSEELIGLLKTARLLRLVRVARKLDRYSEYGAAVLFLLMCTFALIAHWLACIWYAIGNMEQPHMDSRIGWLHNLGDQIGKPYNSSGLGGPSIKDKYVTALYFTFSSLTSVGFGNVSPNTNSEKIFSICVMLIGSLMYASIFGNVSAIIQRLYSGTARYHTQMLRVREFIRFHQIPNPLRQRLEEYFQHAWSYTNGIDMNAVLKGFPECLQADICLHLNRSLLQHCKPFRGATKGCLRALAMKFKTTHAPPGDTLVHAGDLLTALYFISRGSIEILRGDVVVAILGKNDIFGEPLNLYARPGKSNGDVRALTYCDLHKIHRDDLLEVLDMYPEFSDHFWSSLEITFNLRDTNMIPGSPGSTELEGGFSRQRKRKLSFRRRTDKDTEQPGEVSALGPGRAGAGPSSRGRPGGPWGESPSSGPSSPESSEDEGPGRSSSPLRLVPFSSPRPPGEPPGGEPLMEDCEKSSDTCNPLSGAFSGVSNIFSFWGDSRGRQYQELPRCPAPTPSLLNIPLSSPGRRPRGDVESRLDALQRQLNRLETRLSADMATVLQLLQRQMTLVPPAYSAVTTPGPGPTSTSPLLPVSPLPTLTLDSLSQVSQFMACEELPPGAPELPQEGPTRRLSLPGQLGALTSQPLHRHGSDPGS

## COc1cc2c(cc1OC)-c1cc(Nc3ccc(F)cc3)nc(=O)n1CC2
[1]
  EC50: < 0.3 µM (active)
[2]
  EC50: > 112 µM (not active)
[3]
  EC50: 1.82 µM (active)

## CCc1cccc(CC)c1NC(=O)COC(=O)c1ccccc1-c1nc2ccccc2s1
[4]
  IC50: 17.3 µM (not active)
[5]
  IC50: 5.77 µM (active)

## Nc1c(C(=O)Nc2ccc3c(c2)OCCO3)nnn1Cc1cccc(F)c1
[6]
  IC50: 13.7 µM (not active)
[7]
  IC50: > 111 µM (not active)

## CCCN1CCN(CCCNC(=O)c2cc3c(s2)-c2ccccc2OC3)CC1
Vero [8]
  IC50: 20 µM (active)
Vero [9]
  CC50: > 25 µM (active)

## c1ccc(-c2ccc(-c3nc(-c4ccncc4)no3)cc2)cc1
[10]
  EC50: 4.37 µM (active)
HT-1080
  EC50: > 50 µM (not active)

## S=C(NNC(=S)Nc1ccc(Cl)cc1)Nc1ccccc1
NADPH oxidase 1
  IC50: 0.725 µM (active)

## Cc1oc(C)c2c(=O)ccc3c(c12)OC(N)=C(C#N)C3c1ccc(F)cc1 (stereo unspecified)
[11]
  EC50: 10.3 µM (active)
[12]
  CC50: 21.6 µM (active)
[13]
  EC50: 9.61 µM (active)

## CCCn1c(SCC(N)=O)nc2c(c1=O)C1(CCCC1)Cc1ccccc1-2
[14]
  EC50: 4.67 µM (active)
